This experiment deals with T1, Rhus vernicifera laccase (free laccase).
T1 construct: gene urishiol oxidase
As to conditions: free enzyme; 100 mM sodium citrate buffer, optimum pH (3.5), 25°C; ABTS 0.05-20.0 mM.

In the case of `CCn1c(=NN=c2sc3cc(S(=O)(=O)O)ccc3n2CC)sc2cc(S(=O)(=O)O)ccc21` [ABTS, 2,2'-azino-bis (3-ethylbenzothiazoline-6-sulfonic acid)], the Km (usually the concentration of substrate that gives half-maximal velocity) came to 1720 ± 380 µM.

Values taken from article PMC9895995, “Laccase Immobilization on Copper-Magnetic Nanoparticles for Efficient Bisphenol Degradation” (Journal of Microbiology and Biotechnology, 2022).
